Source: patent US20050222146A1, “N-substituted-n-sulfonylaminocyclopropane compounds and pharmaceutical use thereof” (priority 2003, published 2005)

Legend:
aggrecanase-1 = target: T1, aggrecanase-1 (Homo sapiens, UniProt O75173); experiment: Aggrecanase-1 inhibitory action, Particle Assay (GAG release from aggrecan-containing polyacrylamide particles); type: biochemical; details: 37° C. for 15 hr, read-out: Experimental Example 1 IC50 AG1
T1 sequence (O75173 213-837): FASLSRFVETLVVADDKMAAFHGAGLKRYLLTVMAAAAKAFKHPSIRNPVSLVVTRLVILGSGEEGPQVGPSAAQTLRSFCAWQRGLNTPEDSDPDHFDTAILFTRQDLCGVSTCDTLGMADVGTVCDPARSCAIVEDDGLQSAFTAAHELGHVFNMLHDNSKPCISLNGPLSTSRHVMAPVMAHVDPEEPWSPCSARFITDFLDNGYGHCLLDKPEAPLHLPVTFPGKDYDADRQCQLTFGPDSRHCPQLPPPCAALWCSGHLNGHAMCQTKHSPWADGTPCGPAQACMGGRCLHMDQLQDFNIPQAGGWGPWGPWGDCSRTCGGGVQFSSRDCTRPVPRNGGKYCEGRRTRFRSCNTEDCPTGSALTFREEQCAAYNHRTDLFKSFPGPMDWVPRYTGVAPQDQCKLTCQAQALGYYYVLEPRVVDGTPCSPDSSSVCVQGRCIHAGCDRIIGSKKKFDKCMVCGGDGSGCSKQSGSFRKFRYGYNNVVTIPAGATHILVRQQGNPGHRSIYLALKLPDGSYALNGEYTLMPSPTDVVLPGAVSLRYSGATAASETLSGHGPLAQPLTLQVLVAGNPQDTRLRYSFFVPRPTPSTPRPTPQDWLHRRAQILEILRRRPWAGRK
Method: Aggrecanase-1 Inhibitory Action
Particle Assay was used for determination of aggrecanase activity.
(§1) The enzyme and substrate were diluted with Tris-HCl buffer, and test compounds were diluted with dimethyl sulfoxide (DMSO).
Test compounds and the enzyme were added into 96-well plate, and polyacrylamide particles containing aggrecan were added as a substrate and the mixture was incubated at 37° C. for 15 hr.
After incubation; the supernatant was transferred to another plate, and mixed with 1,9-dimethylmethylene blue. The absorbance at 595 nm was measured to quantify the amount of glycosaminoglycan (GAG) released in the reaction supernatant. Whale chondroitin sulfate was used as the standard of GAG. The inhibitory activity of the compound in each well (%) was calculated based on the values of enzyme-free well and inhibitor-free well. The inhibitory activity of the compound was represented as IC50 (μM).

MMP-1 = target: T2, MMP-1 (Homo sapiens, UniProt P03956); experiment: MMP-1 inhibitory action, Type I collagen Activity Measurement kit (FITC-labeled collagen type I); type: biochemical; details: 37° C. for 3 hr, read-out: Experimental Example 2 IC50 MMP1
T2 sequence (P03956 100-469): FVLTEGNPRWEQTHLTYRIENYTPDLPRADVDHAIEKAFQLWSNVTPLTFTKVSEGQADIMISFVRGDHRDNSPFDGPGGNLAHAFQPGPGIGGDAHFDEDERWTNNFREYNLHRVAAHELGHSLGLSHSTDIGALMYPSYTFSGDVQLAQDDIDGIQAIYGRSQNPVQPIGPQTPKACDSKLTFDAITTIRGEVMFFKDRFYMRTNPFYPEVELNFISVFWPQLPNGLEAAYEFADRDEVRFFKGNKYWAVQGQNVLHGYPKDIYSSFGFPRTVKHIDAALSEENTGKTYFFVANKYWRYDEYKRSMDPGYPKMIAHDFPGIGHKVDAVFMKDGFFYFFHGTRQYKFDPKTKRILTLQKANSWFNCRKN
Method: For MMP-1 Assay, Type I collagen Activity Measurement kit (YAGAI YU-72013) modified to a 96-well plate format was used.
The principle of the kit is based on the property of collagen that becomes soluble in ethanol after being cleaved by MMP-1.
as §1
The enzyme and test compounds were added into 96-well plate, and fluorescein isothiocianate (FITC)-labeled collagen type I was added as a substrate and the mixture was incubated at 37° C. for 3 hr.
The reaction was terminated by addition of Tris-HCl buffer containing ethanol. After centrifugation, the supernatant containing denatured substrate was transferred to another 96-well plate. The collagenase activity of MMP-1 was determined by measuring FITC fluorescence intensity (excitation wavelength 485 nm, emission wavelength 530 nm) of each well. The inhibitory activity of the compound in each well (%) was calculated based on the values of enzyme-free well and inhibitor-free well. The inhibitory activity of the compound was represented as IC50 (μM).

| Structure (SMILES) | IC50 (aggrecanase-1) | IC50 (MMP-1) |
| --- | --- | --- |
| CC(C)(O)C(=O)NCCN([C@]1(C(=O)O)C[C@H]1c1ccccc1)S(=O)(=O)c1ccc(-c2ccc(Cl)cc2)cc1 (relative stereo) [Example 1-107, (1R*,2S*)-1-{(4′-chloro-biphenyl-4-sulfonyl)-[2-(2-hydroxy-2-methyl-propionylamino)-ethyl]-amino}-2-phenyl-cyclopropanecarboxylic acid] | < 1000 nM | ≥ 1000 nM |
| O=C(CO)NCCN([C@]1(C(=O)O)C[C@H]1c1ccccc1)S(=O)(=O)c1ccc(-c2ccc(Cl)cc2)cc1 (relative stereo) [Example 1-96, (1R*,2S*)-1-{(4′-chloro-biphenyl-4-sulfonyl)-[2-(2-hydroxy-acetylamino)-ethyl]-amino}-2-phenyl-cyclopropanecarboxylic acid] | < 1000 nM | ≥ 10000 nM |
| O=C(O)CN([C@]1(C(=O)O)C[C@H]1c1cccc(Cl)c1)S(=O)(=O)c1ccc(-c2ccc(Cl)cc2)cc1 (relative stereo) [Example 1-12, (1R*,2S*)-1-[carboxymethyl-(4′-chloro-biphenyl-4-sulfonyl)-amino]-2-(3-chloro-phenyl)-cyclopropanecarboxylic acid] | < 1000 nM | ≥ 10000 nM |
| O=C(O)CN([C@]1(C(=O)O)C[C@H]1c1ccc(Cl)cc1)S(=O)(=O)c1ccc(-c2ccc(Cl)cc2)cc1 (relative stereo) [Example 1-11, (1R*,2S*)-1-[carboxymethyl-(4′-chloro-biphenyl-4-sulfonyl)-amino]-2-(4-chloro-phenyl)-cyclopropanecarboxylic acid] | < 1000 nM | ≥ 10000 nM |
| O=C(O)CN([C@]1(C(=O)O)C[C@H]1c1ccccc1-c1ccccc1)S(=O)(=O)c1ccc(-c2ccc(Cl)cc2)cc1 (relative stereo) [Example 1-26, (1R*,2S*)-2-biphenyl-2-yl-1-[carboxymethyl-(4′-chloro-biphenyl-4-sulfonyl)-amino]-cyclopropanecarboxylic acid] | < 1000 nM | ≥ 10000 nM |
| O=C(O)CN([C@]1(C(=O)O)C[C@H]1c1cc(Cl)ccc1Cl)S(=O)(=O)c1ccc(-c2ccc(Cl)cc2)cc1 (relative stereo) [Example 1-24, (1R*,2S*)-1-[carboxymethyl-(4′-chloro-biphenyl-4-sulfonyl)-amino]-2-(2,5-dichloro-phenyl)-cyclopropanecarboxylic acid] | < 1000 nM | ≥ 10000 nM |
| COC(=O)c1cn(CCN([C@]2(C(=O)O)C[C@H]2c2ccccc2)S(=O)(=O)c2ccc(-c3ccc(Cl)cc3)cc2)cn1 (relative stereo) [Example 1-112, 1-{2-[((1R*,2S*)-1-carboxy-2-phenyl-cyclopropyl)-(4′-chloro-biphenyl-4-sulfonyl)-amino]-ethyl}-1H-imidazole-4-carboxylic acid methyl ester] | < 1000 nM | ≥ 10000 nM |
| CC(C)OC(=O)NS(=O)(=O)NCCN([C@]1(C(=O)O)C[C@H]1c1ccccc1)S(=O)(=O)c1ccc(-c2ccc(Cl)cc2)cc1 (relative stereo) [Example 1-9, (1R*, 2S*)-1-[(4′-chloro-biphenyl-4-sulfonyl)-(2-isopropoxycarbonylaminosulfonylamino-ethyl)-amino]-2-phenyl-cyclopropanecarboxylic acid] | < 1000 nM | ≥ 10000 nM |

Next, values leading:

| IC50 (aggrecanase-1) | IC50 (MMP-1) | Structure (SMILES) |
| --- | --- | --- |
| < 1000 nM | ≥ 10000 nM | O=C(O)c1nccn1CCN([C@]1(C(=O)O)C[C@H]1c1ccccc1)S(=O)(=O)c1ccc(-c2ccc(Cl)cc2)cc1 (relative stereo) [Example 1-78, 1-{2-[((1R*,2S*)-1-carboxy-2-phenyl-cyclopropyl)-(4′-chloro-biphenyl-4-sulfonyl)-amino]-ethyl}-1H-imidazole-2-carboxylic acid] |
| < 1000 nM | ≥ 10000 nM | O=C(O)c1cccnc1CN([C@]1(C(=O)O)C[C@H]1c1ccccc1)S(=O)(=O)c1ccc(-c2ccc(Cl)cc2)cc1 (relative stereo) [Example 1-56, 2-{[((1R*,2S*)-1-carboxy-2-phenyl-cyclopropyl)-(4′-chloro-biphenyl-4-sulfonyl)-amino]-methyl}-nicotinic acid] |
| < 1000 nM | ≥ 10000 nM | O=C(O)[C@@]1(N(CCNc2nnn[nH]2)S(=O)(=O)c2ccc(-c3ccc(Cl)cc3)cc2)C[C@H]1c1ccccc1 (relative stereo) [Example 1-77, (1R*,2S*)-1-{(4′-chloro-biphenyl-4-sulfonyl)-[2-(1H-tetrazol-5-ylamino)-ethyl]-amino}-2-phenyl-cyclopropanecarboxylic acid] |
| < 1000 nM | ≥ 1000 nM | O=C(O)CN(C1(C(=O)O)CC1c1cccc(OCc2ccccc2)c1)S(=O)(=O)c1ccc(-c2ccc(Cl)cc2)cc1 (centres unmarked) [Example 1-50] |
| < 100 nM | ≥ 10000 nM | O=C(O)CN([C@]1(C(=O)O)C[C@H]1c1cccc(Cl)c1Cl)S(=O)(=O)c1ccc(-c2ccc(Cl)cc2)cc1 (relative stereo) [Example 1-41, (1R*,2S*)-1-[carboxymethyl-(4′-chloro-biphenyl-4-sulfonyl)-amino]-2-(2,3-dichloro-phenyl)-cyclopropanecarboxylic acid] |
| < 100 nM | ≥ 10000 nM | O=C(O)c1cccc(CN(C2(C(=O)O)CC2c2cccc(Oc3cccnc3)c2)S(=O)(=O)c2ccc(-c3ccc(Cl)cc3)cc2)c1 (stereo not drawn) [Example 1-102, 3-{[{(1R*,2S*-1-carboxy-2-[3-(pyridin-3-yloxy)-phenylcyclopropyl}-(4′-chloro-biphenyl-4-sulfonyl)-amino]-methyl}-benzoic acid] |
| < 1000 nM | ≥ 10000 nM | O=C(O)CN([C@]1(C(=O)O)C[C@H]1c1ccc(Cl)c(Cl)c1)S(=O)(=O)c1ccc(-c2ccc(Cl)cc2)cc1 (relative stereo) [Example 1-23, (1R*,2S*)-1-[carboxymethyl-(4′-chloro-biphenyl-4-sulfonyl)-amino]-2-(3,4-dichloro-phenyl)-cyclopropanecarboxylic acid] |
| < 100 nM | ≥ 10000 nM | O=C(O)CN([C@]1(C(=O)O)C[C@H]1c1ccccc1Cc1ccccc1)S(=O)(=O)c1ccc(-c2ccc(Cl)cc2)cc1 (relative stereo) [Example 1-31, (1R*,2S*)-2-(2-benzyl-phenyl)-1-[carboxymethyl-(4′-chloro-biphenyl-4-sulfonyl)-amino]-cyclopropanecarboxylic acid] |
| < 100 nM | ≥ 1000 nM | O=C(O)c1cccc(CN(C2(C(=O)O)CC2c2cccc(OCCn3ccnc3)c2)S(=O)(=O)c2ccc(-c3ccc(Cl)cc3)cc2)c1 (stereo not drawn) [Example 1-95, 3-{[{(1R*,2S*-1-carboxy-2-[3-(2-imidazol-1-yl-ethoxy)-phenyl]-cyclopropyl}-(4′-chloro-biphenyl-4-sulfonyl)-amino]-methyl}-benzoic acid] |
| < 100 nM | ≥ 10000 nM | O=C(O)c1ccc(CN([C@]2(C(=O)O)C[C@H]2c2ccccc2)S(=O)(=O)c2ccc(-c3ccc(Cl)cc3)cc2)cc1 (relative stereo) [Example 1-10, (1R*,2S*)-4-{[(1-carboxy-2-phenyl-cyclopropyl)-(4′-chloro-biphenyl-4-sulfonyl)-amino]-methyl}-benzoic acid] |
| < 100 nM | ≥ 10000 nM | O=C1NS(=O)(=O)N(CCN(C2(C(=O)O)CC2c2ccccc2)S(=O)(=O)c2ccc(-c3ccc(Cl)cc3)cc2)C1=O (stereo not drawn) [Example 1-83, (1R*,2S*)-1-{(4′-chloro-biphenyl-4-sulfonyl)-[2-(1,1,3,4-tetraoxo-llambda*6*-[1,2,5]thiadiazolidin-2-yl)-ethyl]-amino}-2-phenyl-cyclopropanecarboxylic acid] |
